Columns and labels:
A. aegypti mosquitoes [1] = experiment: Olfactometer test (repellency from target air stream); type: in vivo; details: for mg to reach RD90: dose at which 90% of control population driven from target, 28 x 10 cm filter paper, female mosquitoes; for WEIGHT INDEX: ratio of weight of ingredient versus weight of DEET to achieve RD90, 25° C.
Text: The olfactometer test provides a means for measuring the effect of a volatile active ingredient on flying insects under precisely controlled conditions. Mosquitoes are used as the test insect. In this and the other Examples, below, the mosquitoes were A. aegypti. The olfactometer used for the olfactory tests described below generates two uniform, laminar flow air streams. These air streams consist of a target air stream superimposed upon and centered within a carrier air stream.
The olfactometer provides a square testing surface with an area of 929 cm^2. The testing area consists of a circular target area of 42 cm^2 centered on a square background surface area of 887 cm^2. In the tests described, a 200 ml/min flow of carbon dioxide was introduced into the carrier air stream to activate the mosquitoes. […] The flow rate of the carrier air stream was 300 to 350 liters/min. […] Elevated temperature and humidity at the level described for the target air stream are known to be attractive to mosquitoes. The flow rate of the target air stream was 12 liters/min.
The olfactometer has an air flow duct through which the carrier air flow strewn passes. A glass cylinder having one closed and one open end, an internal diameter of 6 cm and a depth of 14 cm is located within the air flow duct, with the longitudinal axis of the glass cylinder oriented parallel to the direction of flow of the carrier air flow stream, with the open end of the cylinder pointing down stream. The target air stream is generated by releasing a flow of temperature and humidity conditioned air into the glass cylinder near its closed end, from which point the air flows the length of the glass cylinder to exit at its open end.
Active insect control ingredients to be tested are impregnated in a filter paper test substrate (Grade 615 from VWR Scientific Inc.) having a length of 28 cm and a width of 10 cm. The filter paper test substrate is folded into a fluted cylinder and inserted coaxially within the glass cylinder to rest at a location between the point where the air is released into the glass cylinder and the open end of the glass cylinder. By this arrangement, the target air stream is caused to pass over the surface of the filter paper test substrate so that any active insect control ingredient present in the filter paper test substrate may evaporate into the target air stream before the target air stream exits the glass cylinder to continue, embedded within the flow of the carrier air stream.
Cubic test cages having 30.5 cm edges were constructed of four glass panels, with two opposing sides of the cubic test cages being open. One open side was designated the test panel and was covered with an airflow-transmitting, mosquito-retaining mesh. The opposite open side was covered with a closeable sleeve made of a tubular, open-weave, mosquito-retaining fabric well known in the art as “stockinet.” For any given test, the test cage normally contained from 250 to 350 female mosquitoes.
The test cage was placed in the air stream with the test panel facing and perpendicular to the direction of flow of the air streams of the olfactometer. In order to allow the mosquitoes to become activated by the carbon dioxide of the air streams, the test cage first was placed in the olfactometer for an initial 5 minute conditioning exposure. The test cage then was removed from the olfactometer for 3 minutes and then placed back in the olfactometer for a second 5 minute conditioning exposure. The test cage was again removed from the olfactometer for 3 minutes, during which time a control filter paper test substrate was inserted within the glass cylinder of the olfactometer. The test cage was then placed on the olfactometer for a 10 minute control exposure. The same procedure was repeated, using each time a filter paper test substrate impregnated with increasing amounts of active insect control ingredient. […]

[2] = Volatility index calculation (concentration in air from vapor pressure); type: physicochemical; details: for CONCENTRATION IN AIR: calculated from vapor pressure by ideal gas equation, 20 to 25° C.; for VOLATILITY INDEX: concentration in the air relative to DEET at 20 to 25° C.
A. aegypti mosquitoes [3] = experiment: Activity index calculation (volatility index x weight index); details: volatility index multiplied by weight index; DEET = 1.00
Method: The “activity index” is obtained by the multiplying the volatility index and the weight index. The activity index is an attempt to predict the combined effect of volatility and potency by weight in the usefulness of an insect control active ingredient for insect control of flying insects by passive evaporation. The following activity indices were calculated from the volatility and weight indices given, above: […]

A. aegypti mosquitoes [4] = experiment: Chamber test, first series (box fan), mosquito repellency and knock-down; type: in vivo; details: at least 50% repellency within 20 minutes with not more than a gram
Text: (§1) The chamber test protocol was developed to realistically model actual use conditions for the insect control article of the invention. A closed, generally featureless, approximately 28 m^3, box-like test chamber is used, the size of a small room. Six mosquito knock-down cages are distributed vertically within the test chamber, suspended from poles adjacent to opposite test chamber side walls, where they can be observed from outside the test chamber through chamber windows. Mosquitoes in the cages are observed during a test to evaluate the ability of a material being tested to knock down mosquitoes. An insect “knocked down” is one that is incapable of flying and usually is moribund in appearance. The insect may or may not actually be dead. The knock-down cages are cylindrical, approximately 6 cm long and 8 cm in diameter, and have screened but otherwise open ends.
(§2) Two repellency mosquito cages are also provided. The repellency cages are box-like screened cages, approximately 73 cm long and 16 cm square in cross section. All of the walls of the repellency cages are screened but otherwise generally open. Each repellency cage is divided by a clear plastic partition into a first holding area, which occupies approximately 45 cm of the length of the cage, and a second holding area, which occupies the remaining 28 cm. The plastic partition has a 4 cm diameter hole in its center that provides the only route by which mosquitoes may pass between the two holding areas. The repellency cages are mounted in a test chamber wall, with the plastic partition located in the plane of the test chamber wall, and are so oriented that the first holding area projects inwardly, into the test chamber, while the second holding area projects through the test chamber wall, out into normal room air.
(§3) A mouse cage essentially identical to a mosquito knock-down cage is mounted on the end of the first holding chamber of each repellency test cage that faces toward the interior of the test chamber. The mouse cage is separated from the repellency cage only by a mosquito-proof screen. One mouse is placed in the mouse cage during a test to provide an attractant for mosquitoes being held in the repellency test cage. Mosquitoes in the first holding area of a repellency cage thus are attracted toward the mouse, on the one hand, and repelled by the insect control article being tested, on the other hand.
(§4) When a test is run, fifty female mosquitoes are placed in the first holding area of each mosquito cage, with the partition hole closed by a removable door. Ten female mosquitoes are placed in each knock-down cage. The insect control article to be tested is placed centrally within the test chamber and the air flow is initiated. At timed intervals up to a total testing period of two hours, each knock-down cage and each repellency cage is visually examined, and the location, number, and condition of the mosquitoes are noted. The number of mosquitoes that have been driven to the second holding area provides a measure of the repellency of the insect control article being tested. The number of mosquitoes knocked down in the knock-down cages is also recorded. The general success of an insect control article is judged by both the mosquitoes repelled and those knocked down, in that both effects reduce the total number of mosquitoes available for biting.
Two series of tests were run using the chamber test protocol to evaluate the effect of insect control articles made in accordance with the invention. […]

A. aegypti mosquitoes [5] = experiment: Chamber test, second series (small blower, 0.06 m^3 per minute); type: in vivo; details: 0.5 cm thick, 4.5 cm diameter corrugated cardboard coil; blower 0.06 m^3 per minute; two hour test; NA = not achieved
Text: as §1, §2, §3, §4
In an additional series of tests using the chamber protocol, two insect control active ingredients were tested for their ability to achieve the preferred practical control level, defined above. The experiment of the first series was substantially repeated except that the substrate was a 0.5 cm thick, 4.5 cm diameter coil of common corrugated cardboard, with the channels of the corrugation presented endwardly to the direction of air flow. […]

| Compound | mg to reach RD90 (A. aegypti mosquitoes [1]) | WEIGHT INDEX (A. aegypti mosquitoes [1]) | CONCENTRATION IN AIR [2] | VOLATILITY INDEX [2] | ACTIVITY INDEX (A. aegypti mosquitoes [3]) | practical insect control as defined (minimum practical control standard) (A. aegypti mosquitoes [4]) | Minutes to RD50 (A. aegypti mosquitoes [5]) |
| --- | --- | --- | --- | --- | --- | --- | --- |
| Cc1c(F)c(F)c(COC(=O)[C@@H]2[C@H](/C=C(\Cl)C(F)(F)F)C2(C)C)c(F)c1F (racemic) [Tefluthrin] | 1.3 milligrams/filter paper test substrate | 0.014 | 1.37 × 10^−5 grams per liter | 0.797 | 0.011 |  |  |
| C=CCC1=C(C)C(OC(=O)C2C(C=C(C)C)C2(C)C)CC1=O (stereo not drawn) [Allethrin (90% active), Allethrin] | 8.0 milligrams/filter paper test substrate | 0.085 | 1.92 × 10^−6 grams per liter | 0.112 | 0.0095 |  |  |
| C=CCC1=C(C)C(OC(=O)[C@@H]2[C@@H](C=C(C)C)C2(C)C)CC1=O (stereo partly drawn) [Bioallethrin] | 5.5 milligrams/filter paper test substrate | 0.058 | 1.46 × 10^−6 grams per liter | 0.085 | 0.0049 |  |  |
| CC1(C)C(C=C(Cl)Cl)C1C(=O)OC(C#N)c1ccc(F)c(Oc2ccccc2)c1 (stereo not drawn) [Cyfluthrin] | >1000 milligrams/filter paper test substrate | >10.5 | <7.11 × 10^−9 grams per liter | <0.00041 |  |  |  |
| CC(C)=CC1C(C(=O)OC(C#N)c2cccc(Oc3ccccc3)c2)C1(C)C (stereo not drawn) [Cyphenothrin] | ˜1000 milligrams/filter paper test substrate | ˜10.5 | 1.85 × 10^−8 grams per liter | 0.0011 | ˜0.011 |  |  |
| COP(=O)(OC)OC=C(Cl)Cl [DDVP] | 40 milligrams/filter paper test substrate | 0.42 | 2.63 × 10^−5 grams per liter | 1.53 | 0.60 | achieved |  |
| CCN(CC)C(=O)c1cccc(C)c1 [DEET, N,N-diethyl-meta-toluamide] | 95 milligrams/filter paper test substrate | 1.00 | 1.72 × 10^−5 grams per liter | 1.00 | 1.00 |  |  |
| C=CCC1=C(C)C(OC(=O)[C@@H]2[C@@H](C=C(C)C)C2(C)C)CC1=O (stereo partly drawn) [Esbiothrin] | 4.5 milligrams/filter paper test substrate | 0.047 | 5.35 × 10^−6 grams per liter | 0.311 | 0.0146 | achieved |  |
| CC1(C)C(C=C(Cl)Cl)C1C(=O)OCc1cccc(Oc2ccccc2)c1 (stereo not drawn) [Permethrin] | >1000 milligrams/filter paper test substrate | >10.5 | 7.11 × 10^−9 grams per liter | 0.00041 | >0.004 |  |  |
| C#CCC1=C(C)C(OC(=O)C2C(C=C(C)C)C2(C)C)CC1=O (stereo not drawn) [Prallethrin] | 5.5 milligrams/filter paper test substrate | 0.058 | 5.80 × 10^−7 grams per liter | 0.034 | 0.0020 | achieved | failed to achieve |
| CNC(=O)Oc1ccccc1OC(C)C [Propoxur (Baygon), Propoxur] | >120 milligrams/filter paper test substrate | >1.26 |  |  |  |  |  |
| C#CC(OC(=O)C1C(C=C(C)C)C1(C)C)/C(C)=C/CC (stereo not drawn) [Vaporthrin] | 5.3 milligrams/filter paper test substrate | 0.058 | 9.75 × 10^−6 grams per liter | 0.567 | 0.033 | achieved |  |
| Pentecychlothrin [Pentecychlothrin (Zhong X1)] | 8.1 milligrams/filter paper test substrate | 0.085 | 3.64 × 10^−7 grams per liter | 0.021 | 0.0018 |  |  |

Source: US6582714B1, “Article for insert control by passive evaporation of an active ingredient” (priority 1995, dated 2003)
